How the values were obtained:
[1] = prolonged infusion; chronically debilitated patients with metastatic treatment refractory disease (Stage IV cancer); cited from earlier work
COVID-19 [2] = assay: oral ATP supplementation of COVID-19 patients in facility 3; format: in vivo, human; conditions: protocol similar to facilities 1 and 2
Description: Using a protocol similar to those used in facilities 1 and 2, ATP supplementation was begun in facility 3.

[3] = tested on: advanced hormone refractory prostate cancer; conditions: oral ATP added to palliative agents such as samarium-153; cited from earlier work
[4] = high dose oral ATP, cited from earlier work
COVID-19 [5] = assay: non-randomized trial of oral ATP supplementation for treatment of COVID-19 at two residential care facilities (facilities 1 and 2); format: in vivo, human
Description: FIG. 3 provides a summary of short-term results of a non-randomized trial of ATP supplementation for treatment of COVID-19 at two different residential care facilities. When the facilities experienced a rapid and insidious onset of COVID-19 in 2020, optional oral ATP nutritional supplementation to COVID-19-positive patients in these two facilities was offered. Patients were given free choice to either accept or reject ATP supplementation. ATP doses ranged from 400-mg capsules four times per day (1600 mg) in the younger patients at facility 1 to three 400-mg capsules three times per day (3600 mg) for the older patients in facility 2. In both facilities, ATP was taken for at least a week after confirmation of SARS-CoV-2 infection. ATP also was offered in powder form to be mixed with food or drink at 450 mg per dose.
From the initial 13 patients diagnosed with COVID-19 in facility 1, six patients with average age 75.0 years chose to start ATP while the remaining seven with average age 74.7 years chose not to take ATP. Because of the visible developing benefit conferred by ATP, all subsequent COVID-19 patients at the facility 1 chose to begin taking ATP at the time of their diagnoses. All six patients who initially chose ATP were still alive.
At facility 2, all of the patients receiving ATP started taking ATP on the same day following confirmation of viral infection. All of the facility 2 patients taking ATP were alive. Because all patients taking ATP were elderly with multiple co-morbidities (including diabetes and heart disease), it would be expected that their death rate should be worse than that of the general population of individuals over 70 years of age.

[6] = in vivo; cited from earlier work

**Q.** Which results are given for `Nc1ncnc2c1ncn2[C@@H]1O[C@H](COP(=O)(O)OP(=O)(O)OP(=O)(O)O)[C@@H](O)[C@H]1O` [ATP, Adenosine Triphosphate]?
**A.** safety of administration [1]: safely administered; survival of COVID-19 patients taking supplemental ATP (COVID-19 [2]): survived except for one patient; prostate biomarker PSA [3]: dramatically reduces; cancer patient survival ([4]; advanced cancer patients): improved; athletic performance ([4]; athletes): improved; survival of COVID-19-positive patients accepting oral ATP (COVID-19 [5]; facilities 1 and 2, oral ATP 1600-3600 mg per day for at least a week, 2 months after the initiation of supplemental ATP): alive and recovering; survival of patients who initially chose ATP (COVID-19 [5]; facility 1, six patients, average age 75.0 years, 400-mg capsules four times per day): still alive; survival of patients taking ATP (COVID-19 [5]; facility 2, older patients, three 400-mg capsules three times per day): alive; pulmonary artery hypertension [6]: reverse

From patent publication US20250312370A1, “SYSTEMS AND METHODS FOR USE OF ADENOSINE TRIPHOSPHATE (ATP) TO RELIEVE SYMPTOMS OF COVID-19 AND RELATED INFECTIONS” (ADENYLATE THERAPEUTICS LLC, priority 2020, published 2025)
